Experimental data as given in ChEMBL document CHEMBL2346634, “Synthesis and biological activity of 4-substituted benzoxazolone derivatives as a new class of sEH inhibitors with high anti-inflammatory activity in vivo” (Bioorg Med Chem Lett, 2013).

Columns and labels:
[1] = biological target: T1, Bifunctional epoxide hydrolase 2 (Homo sapiens) (UniProt P34913); test: Inhibition of recombinant human sEH expressed in Escherichia coli assessed as inhibition of substrate PHOME hydrolysis to 6-methoxy-2-naphthaldehyde at 10 ug/ml after 5 mins by fluorescence assay
T1 sequence (whole entry): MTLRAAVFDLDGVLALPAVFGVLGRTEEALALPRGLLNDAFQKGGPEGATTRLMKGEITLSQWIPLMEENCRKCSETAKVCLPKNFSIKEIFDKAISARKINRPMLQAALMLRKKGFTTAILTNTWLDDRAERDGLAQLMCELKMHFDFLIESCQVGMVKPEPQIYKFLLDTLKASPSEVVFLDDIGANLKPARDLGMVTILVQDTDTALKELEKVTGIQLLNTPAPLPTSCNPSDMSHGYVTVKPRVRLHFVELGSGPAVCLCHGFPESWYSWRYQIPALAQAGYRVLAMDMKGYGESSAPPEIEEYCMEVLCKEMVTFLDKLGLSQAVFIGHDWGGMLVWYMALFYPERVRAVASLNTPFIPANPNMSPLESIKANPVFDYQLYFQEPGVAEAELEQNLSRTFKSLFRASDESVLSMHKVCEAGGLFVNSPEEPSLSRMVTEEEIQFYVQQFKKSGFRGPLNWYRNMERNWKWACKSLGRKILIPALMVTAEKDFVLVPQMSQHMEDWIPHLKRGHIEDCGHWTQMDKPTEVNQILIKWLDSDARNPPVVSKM

[2] = species on record: Mus musculus; test: animal or person; details: Kunming, Ear, po, read-out: INH
Description: Antiinflammatory activity in Kunming mouse assessed as inhibition of xylene-induced ear edema at 150 mg/kg, po administered 45 mins prior to xylene challenge measured 15 mins post challenge

[3] = biological target: T2, Bifunctional epoxide hydrolase 2 (Homo sapiens, UniProt P34913)
T2 sequence (P34913 whole entry): T1 sequence (whole entry)
Description: Inhibition of recombinant human sEH expressed in Escherichia coli assessed as inhibition of substrate PHOME hydrolysis to 6-methoxy-2-naphthaldehyde after 5 mins by fluorescence assay

Row | inhibition [1] | SMILES | inhibition in vivo at 150 mg/kg [2] | IC50 [3]
1 | 28.8% | O=c1[nH]c2c(OS(=O)(=O)c3ccc([N+](=O)[O-])cc3)cccc2o1 |  | 
2 | 92.9% | O=C(Oc1cccc2oc(=O)[nH]c12)c1cccc([N+](=O)[O-])c1 |  | 3 µM
3 | 29.2% | O=C(Oc1cccc2oc(=O)[nH]c12)c1ccccc1[N+](=O)[O-] |  | 
4 | 28.1% | O=C(Oc1cccc2oc(=O)[nH]c12)c1ccc([N+](=O)[O-])cc1 |  | 
5 | 28% | Cc1ccccc1S(=O)(=O)Oc1cccc2oc(=O)[nH]c12 |  | 
6 | 98.3% | Cc1ccc(C(=O)Oc2cccc3oc(=O)[nH]c23)cc1 |  | 1.07 µM
7 | 36% | O=c1[nH]c2c(OS(=O)(=O)c3ccccc3)cccc2o1 |  | 
8 | 25.3% | O=C(Oc1cccc2oc(=O)[nH]c12)c1cccc(Cl)c1 |  | 
9 | 45.5% | O=c1[nH]c2c(O[C@@H]3O[C@H](CO)[C@@H](O)[C@H](O)[C@H]3O)cccc2o1 |  | 
10 | 13.6% | O=c1[nH]c2c(OS(=O)(=O)c3ccc(Cl)cc3)cccc2o1 |  | 
11 | 30.9% | Cc1cccc(S(=O)(=O)Oc2cccc3oc(=O)[nH]c23)c1 |  | 
12 | 15.2% | O=c1[nH]c2c(OS(=O)(=O)c3ccccc3Cl)cccc2o1 |  | 
13 | 24.5% | O=c1[nH]c2c(OS(=O)(=O)c3cccc(Cl)c3)cccc2o1 |  | 
14 | 26.2% | Cc1ccccc1C(=O)Oc1cccc2oc(=O)[nH]c12 |  | 
15 | 28% | O=C(Oc1cccc2oc(=O)[nH]c12)c1ccccc1 |  | 
16 | 61% | O=c1[nH]c2c(O[C@@H]3O[C@H](CO)[C@H](O)[C@H](O)[C@H]3O)cccc2o1 |  | 
17 | 39.9% | Cc1ccc(S(=O)(=O)Oc2cccc3oc(=O)[nH]c23)cc1 |  | 
18 | 31.6% | O=c1[nH]c2c(OS(=O)(=O)c3cccc([N+](=O)[O-])c3)cccc2o1 |  | 
19 | 36.1% | O=c1[nH]c2c(OS(=O)(=O)c3ccccc3[N+](=O)[O-])cccc2o1 |  | 
20 | 24.4% | Cc1cccc(C(=O)Oc2cccc3oc(=O)[nH]c23)c1 |  | 
21 | 30.8% | O=C(Oc1cccc2oc(=O)[nH]c12)c1ccccc1Cl |  | 
22 | 27.8% | O=C(Oc1cccc2oc(=O)[nH]c12)c1ccc(Cl)cc1 |  | 

Row | SMILES | inhibition [1] | inhibition in vivo at 150 mg/kg [2] | IC50 [3]
23 | CC(C)C(NC(=O)OC(C)(C)C)C(=O)Oc1cccc2oc(=O)[nH]c12 (stereo not drawn) | 48% | 46.5% | 
24 | CC(C)(C)OC(=O)N1CCCC1C(=O)Oc1cccc2oc(=O)[nH]c12 (stereo not drawn) | 101% | 51.5% | 1.72 µM
25 | CC(C)(C)OC(=O)NCC(=O)Oc1cccc2oc(=O)[nH]c12 | 95.5% | 54.5% | 17.2 µM
26 | CC(C)(C)OC(=O)NC(Cc1c[nH]c2ccccc12)C(=O)Oc1cccc2oc(=O)[nH]c12 (stereo not drawn) | 79.6% | 61% | 
27 | CC(NC(=O)OC(C)(C)C)C(=O)Oc1cccc2oc(=O)[nH]c12 (stereo not drawn) | 95.7% | 40.7% | 16.4 µM
28 | CSCCC(NC(=O)OC(C)(C)C)C(=O)Oc1cccc2oc(=O)[nH]c12 (stereo not drawn) | 99.6% | 24.8% | 3.02 µM
29 | CC(C)(C)OC(=O)NC(Cc1ccccc1)C(=O)Oc1cccc2oc(=O)[nH]c12 (stereo not drawn) | 90.8% | 64% | 2.67 µM
